Each molecule was assayed on blackgrass (assay: Test Example 5: herbicidal effect by foliage application, plastic box (Table 20, symbol J)). Conditions: foliage application, AAH 320 g/ha, three weeks after application.
Assay type: in vivo, blackgrass (Alopecurus myosuroides)
Method in brief: (§1)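 Sow seeds spot-wise in sterilized diluvial soil; cover with ~1.5 cm soil. Grow 14 days in greenhouse, 25° C. to 30° C. Spray foliage with emulsion diluted to predetermined amount. Rate effect after 3 weeks.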

SMILES | J: blackgrass, herbicidal effect
COc1nn(C)c(=O)c(-c2c(-c3ccc(C#N)cc3)sc3ccccc23)c1O [1-170] | 0 (Herbicidal rate of 5% or less (almost no effect))

The molecules below were run on blackgrass (assay: Test Example 4: herbicidal effect by soil treatment (Table 19, symbol J)). Conditions: AAH 320 g/ha.
Assay type: in vivo, blackgrass (Alopecurus myosuroides)
Method in brief: (§2)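 Soil-surface application: an emulsion agent diluted with water to the predetermined dose is sprayed uniformly over seeds lying under roughly 1.5 cm of sterilized diluvial soil. Boxes stay in a greenhouse at 25° C. to 30° C. Three weeks later, each species is graded on previously defined criteria.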

SMILES | J: blackgrass, herbicidal effect rating
COc1nn(C)c(=O)c(-c2c(-c3ccc(C#N)cc3)sc3ccccc23)c1O [1-170] | 0 (Herbicidal rate of 5% or less (almost no effect))

The molecules below were run on persian speedwell (assay: Test Example 5: herbicidal effect by foliage application, plastic box (Table 20, symbol R)). Conditions: foliage application, AAH 320 g/ha, three weeks after application.
Assay type: in vivo, Persian speedwell (Veronica persica)
Method in brief: as §1

SMILES | R: persian speedwell, herbicidal effect
COc1nn(C)c(=O)c(-c2c(-c3ccc(C#N)cc3)sc3ccccc23)c1O [1-170] | 5 (Herbicidal rate of 90% or more (almost completely withered))

What follows are molecules tested on southern crabgrass (assay: Test Example 5: herbicidal effect by foliage application, plastic box (Table 20, symbol F)). Conditions: foliage application, AAH 320 g/ha, three weeks after application.
Assay type: in vivo, southern crabgrass (Digitaria ciliaris)
Method in brief: as §1

SMILES | F: southern crabgrass, herbicidal effect
COc1nn(C)c(=O)c(-c2c(-c3ccc(C#N)cc3)sc3ccccc23)c1O [1-170] | 3 (Herbicidal rate of 40% or more and less than 70%)

Each molecule was assayed on redroot pigweed (assay: Test Example 4: herbicidal effect by soil treatment (Table 19, symbol N)). Conditions: AAH 320 g/ha.
Assay type: in vivo, redroot pigweed (Amaranthus retroflexus)
Method in brief: as §2

SMILES | N: redroot pigweed, herbicidal effect rating
COc1nn(C)c(=O)c(-c2c(-c3ccc(C#N)cc3)sc3ccccc23)c1O [1-170] | 5 (Herbicidal rate of 90% or more (almost completely withered))

The molecules below were run on lambsquarters (assay: Test Example 5: herbicidal effect by foliage application, plastic box (Table 20, symbol O)). Conditions: foliage application, AAH 320 g/ha, three weeks after application.
Assay type: in vivo, lambsquarters (Chenopodium album)
Method in brief: as §1

SMILES | O: lambsquarters, herbicidal effect
COc1nn(C)c(=O)c(-c2c(-c3ccc(C#N)cc3)sc3ccccc23)c1O [1-170] | 5 (Herbicidal rate of 90% or more (almost completely withered))

What follows are molecules tested on wild oat (assay: Test Example 5: herbicidal effect by foliage application, plastic box (Table 20, symbol I)). Conditions: foliage application, AAH 320 g/ha, three weeks after application.
Assay type: in vivo, wild oat (Avena fatua)
Method in brief: as §1

SMILES | I: wild oat, herbicidal effect
COc1nn(C)c(=O)c(-c2c(-c3ccc(C#N)cc3)sc3ccccc23)c1O [1-170] | 2 (Herbicidal rate of 20% or more and less than 40%)

These molecules were tested on green foxtail (assay: Test Example 4: herbicidal effect by soil treatment (Table 19, symbol G)). Conditions: AAH 320 g/ha.
Assay type: in vivo, green foxtail (Setaria viridis)
Method in brief: as §2

SMILES | G: green foxtail, herbicidal effect rating
COc1nn(C)c(=O)c(-c2c(-c3ccc(C#N)cc3)sc3ccccc23)c1O [1-170] | 0 (Herbicidal rate of 5% or less (almost no effect))

These molecules were tested on wild oat (assay: Test Example 4: herbicidal effect by soil treatment (Table 19, symbol I)). Conditions: AAH 320 g/ha.
Assay type: in vivo, wild oat (Avena fatua)
Method in brief: as §2

SMILES | I: wild oat, herbicidal effect rating
COc1nn(C)c(=O)c(-c2c(-c3ccc(C#N)cc3)sc3ccccc23)c1O [1-170] | 0 (Herbicidal rate of 5% or less (almost no effect))

What follows are molecules tested on barnyard grass (assay: Test Example 3: herbicidal effect by foliage application, Wagner pot (Table 18, symbol H)). Conditions: 320 g/ha.
Assay type: in vivo, barnyard grass (Echinochloa crus-galli)
Method in brief: (§3)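 Plants were sown in alluvial soil held under 0.1–0.5 cm standing water and grown 14 days in a greenhouse at 25–30 °C. An emulsifiable formulation, water-diluted to the set dose, was then sprayed onto the foliage, and effects were scored three weeks later using previously defined criteria.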

SMILES | herbicidal effect on H (barnyard grass), rating 0-5
COc1nn(C)c(=O)c(-c2c(-c3ccc(C#N)cc3)sc3ccccc23)c1O [1-170] | 2 (Herbicidal rate of 20% or more and less than 40%)

These molecules were tested on persian speedwell (assay: Test Example 4: herbicidal effect by soil treatment (Table 19, symbol R)). Conditions: AAH 320 g/ha.
Assay type: in vivo, Persian speedwell (Veronica persica)
Method in brief: as §2

SMILES | R: persian speedwell, herbicidal effect rating
COc1nn(C)c(=O)c(-c2c(-c3ccc(C#N)cc3)sc3ccccc23)c1O [1-170] | 5 (Herbicidal rate of 90% or more (almost completely withered))

What follows are molecules tested on Chinese sprangletop (assay: Test Example 3: herbicidal effect by foliage application, Wagner pot (Table 18, symbol D)). Conditions: 320 g/ha.
Assay type: in vivo, chinese sprangletop (Leptochloa chinensis)
Method in brief: as §3

SMILES | herbicidal effect on D (Chinese sprangletop), rating 0-5
COc1nn(C)c(=O)c(-c2c(-c3ccc(C#N)cc3)sc3ccccc23)c1O [1-170] | 1 (Herbicidal rate of 5% or more and less than 20%)

The molecules below were run on chickweed (assay: Test Example 5: herbicidal effect by foliage application, plastic box (Table 20, symbol P)). Conditions: foliage application, AAH 320 g/ha, three weeks after application.
Assay type: in vivo, common chickweed (Stellaria media)
Method in brief: as §1

SMILES | P: chickweed, herbicidal effect
COc1nn(C)c(=O)c(-c2c(-c3ccc(C#N)cc3)sc3ccccc23)c1O [1-170] | 5 (Herbicidal rate of 90% or more (almost completely withered))

What follows are molecules tested on green foxtail (assay: Test Example 5: herbicidal effect by foliage application, plastic box (Table 20, symbol G)). Conditions: foliage application, AAH 320 g/ha, three weeks after application.
Assay type: in vivo, green foxtail (Setaria viridis)
Method in brief: as §1

SMILES | G: green foxtail, herbicidal effect
COc1nn(C)c(=O)c(-c2c(-c3ccc(C#N)cc3)sc3ccccc23)c1O [1-170] | 5 (Herbicidal rate of 90% or more (almost completely withered))

These molecules were tested on southern crabgrass (assay: Test Example 4: herbicidal effect by soil treatment (Table 19, symbol F)). Conditions: AAH 320 g/ha.
Assay type: in vivo, southern crabgrass (Digitaria ciliaris)
Method in brief: as §2

SMILES | F: southern crabgrass, herbicidal effect rating
COc1nn(C)c(=O)c(-c2c(-c3ccc(C#N)cc3)sc3ccccc23)c1O [1-170] | 0 (Herbicidal rate of 5% or less (almost no effect))

What follows are molecules tested on rice flat sedge (assay: Test Example 3: herbicidal effect by foliage application, Wagner pot (Table 18, symbol E)). Conditions: 320 g/ha.
Assay type: in vivo, rice flat sedge (Cyperus iria)
Method in brief: as §3

SMILES | herbicidal effect on E (rice flat sedge), rating 0-5
COc1nn(C)c(=O)c(-c2c(-c3ccc(C#N)cc3)sc3ccccc23)c1O [1-170] | 5 (Herbicidal rate of 90% or more (almost completely withered))

What follows are molecules tested on windgrass (assay: Test Example 5: herbicidal effect by foliage application, plastic box (Table 20, symbol L)). Conditions: foliage application, AAH 320 g/ha, three weeks after application.
Assay type: in vivo, windgrass (Apera spica-venti)
Method in brief: as §1

SMILES | L: windgrass, herbicidal effect
COc1nn(C)c(=O)c(-c2c(-c3ccc(C#N)cc3)sc3ccccc23)c1O [1-170] | 0 (Herbicidal rate of 5% or less (almost no effect))

These molecules were tested on chickweed (assay: Test Example 4: herbicidal effect by soil treatment (Table 19, symbol P)). Conditions: AAH 320 g/ha.
Assay type: in vivo, common chickweed (Stellaria media)
Method in brief: as §2

SMILES | P: chickweed, herbicidal effect rating
COc1nn(C)c(=O)c(-c2c(-c3ccc(C#N)cc3)sc3ccccc23)c1O [1-170] | 4 (Herbicidal rate of 70% or more and less than 90%)

What follows are molecules tested on windgrass (assay: Test Example 4: herbicidal effect by soil treatment (Table 19, symbol L)). Conditions: AAH 320 g/ha.
Assay type: in vivo, windgrass (Apera spica-venti)
Method in brief: as §2

SMILES | L: windgrass, herbicidal effect rating
COc1nn(C)c(=O)c(-c2c(-c3ccc(C#N)cc3)sc3ccccc23)c1O [1-170] | 0 (Herbicidal rate of 5% or less (almost no effect))

These molecules were tested on barnyard grass (assay: Test Example 4: herbicidal effect by soil treatment (Table 19, symbol H)). Conditions: AAH 320 g/ha.
Assay type: in vivo, barnyard grass (Echinochloa crus-galli)
Method in brief: as §2

SMILES | H: barnyard grass, herbicidal effect rating
COc1nn(C)c(=O)c(-c2c(-c3ccc(C#N)cc3)sc3ccccc23)c1O [1-170] | 0 (Herbicidal rate of 5% or less (almost no effect))

What follows are molecules tested on redroot pigweed (assay: Test Example 5: herbicidal effect by foliage application, plastic box (Table 20, symbol N)). Conditions: foliage application, AAH 320 g/ha, three weeks after application.
Assay type: in vivo, redroot pigweed (Amaranthus retroflexus)
Method in brief: as §1

SMILES | N: redroot pigweed, herbicidal effect
COc1nn(C)c(=O)c(-c2c(-c3ccc(C#N)cc3)sc3ccccc23)c1O [1-170] | 5 (Herbicidal rate of 90% or more (almost completely withered))

What follows are molecules tested on Italian ryegrass (assay: Test Example 4: herbicidal effect by soil treatment (Table 19, symbol K)). Conditions: AAH 320 g/ha.
Assay type: in vivo, Italian ryegrass (Lolium multiflorum)
Method in brief: as §2

SMILES | K: Italian ryegrass, herbicidal effect rating
COc1nn(C)c(=O)c(-c2c(-c3ccc(C#N)cc3)sc3ccccc23)c1O [1-170] | 0 (Herbicidal rate of 5% or less (almost no effect))

The molecules below were run on velvetleaf (assay: Test Example 4: herbicidal effect by soil treatment (Table 19, symbol M)). Conditions: AAH 320 g/ha.
Assay type: in vivo, velvetleaf (Abutilon theophrasti)
Method in brief: as §2

SMILES | M: velvetleaf, herbicidal effect rating
COc1nn(C)c(=O)c(-c2c(-c3ccc(C#N)cc3)sc3ccccc23)c1O [1-170] | 0 (Herbicidal rate of 5% or less (almost no effect))

The molecules below were run on Italian ryegrass (assay: Test Example 5: herbicidal effect by foliage application, plastic box (Table 20, symbol K)). Conditions: foliage application, AAH 320 g/ha, three weeks after application.
Assay type: in vivo, Italian ryegrass (Lolium multiflorum)
Method in brief: as §1

SMILES | K: Italian ryegrass, herbicidal effect
COc1nn(C)c(=O)c(-c2c(-c3ccc(C#N)cc3)sc3ccccc23)c1O [1-170] | 3 (Herbicidal rate of 40% or more and less than 70%)

Each molecule was assayed on lambsquarters (assay: Test Example 4: herbicidal effect by soil treatment (Table 19, symbol O)). Conditions: AAH 320 g/ha.
Assay type: in vivo, lambsquarters (Chenopodium album)
Method in brief: as §2

SMILES | O: lambsquarters, herbicidal effect rating
COc1nn(C)c(=O)c(-c2c(-c3ccc(C#N)cc3)sc3ccccc23)c1O [1-170] | 0 (Herbicidal rate of 5% or less (almost no effect))

These molecules were tested on velvetleaf (assay: Test Example 5: herbicidal effect by foliage application, plastic box (Table 20, symbol M)). Conditions: foliage application, AAH 320 g/ha, three weeks after application.
Assay type: in vivo, velvetleaf (Abutilon theophrasti)
Method in brief: as §1

SMILES | M: velvetleaf, herbicidal effect
COc1nn(C)c(=O)c(-c2c(-c3ccc(C#N)cc3)sc3ccccc23)c1O [1-170] | 5 (Herbicidal rate of 90% or more (almost completely withered))

These molecules were tested on barnyard grass (assay: Test Example 5: herbicidal effect by foliage application, plastic box (Table 20, symbol H)). Conditions: foliage application, AAH 320 g/ha, three weeks after application.
Assay type: in vivo, barnyard grass (Echinochloa crus-galli)
Method in brief: as §1

SMILES | H: barnyard grass, herbicidal effect
COc1nn(C)c(=O)c(-c2c(-c3ccc(C#N)cc3)sc3ccccc23)c1O [1-170] | 4 (Herbicidal rate of 70% or more and less than 90%)

Source: US20230085307A1, “PYRIDAZINONE COMPOUND AND HERBICIDE” (NISSAN CHEMICAL CORPORATION, priority 2019, published 2023)
